Experimental data taken from patent EP0229966A1, “Process for the control of weeds in useful plant cultures and means for performing the process” (SIEGFRIED AKTIENGESELLSCHAFT, priority 1985, dated 1987).

Assays:
Raps = assay: Greenhouse pot test, spray directly after sowing, crop tolerance (Tabelle I); format: in vivo
Text: (§1) Der Tabelle 1 liegen orientierende Versuche zugrunde, welche im klimatisierten Gewächshaus durchgeführt wurden, wobei 7 repräsentative Unkraut- arten und als Beispiel einer Kulturpflanze Raps benützt wurden. Unmittelbar nach dem Beschicken der Kunststofftöpfe mit dem Saatgut wurde (abge-
(§2) sehen von der unbehandelt bleibenden Kontrollserie) je eine Serie behandelt durch Aufsprühen einer wässrigen Suspension bzw. Emulsion, welche als Herbizid entweder nur den Aktivstoff I oder II in unterschiedlicher Menge oder beide Stoffe kombiniert in unterschiedlichen Mengen und Mengenverhältnissen enthielt. Die eingesetzten Aktivstoff-Mengen wurden umgerechnet auf die Aufwändmengen in Gramm Wirkstoff pro Hektar. Die Effekte wurden innert vier Wochen mehrmals begutachtet und protokolliert.
(§3) Die in der Tabelle I enthaltenen Wirkungsangaben wurden nach der Bonitierungs-Skala des European Weed Research Council (EWRC) bestimmt, wobei hier sowohl für Unkräuter wie auch für Kulturpflanze der Wert 1 der völligen Abtötung und der Wert 9 der völligen Wirkungslosigkeit zugeordnet wurde: […]

[1] = test system: 7 repräsentative Unkraut- arten; assay: Greenhouse pot test, spray directly after sowing, EWRC rating, weeds (Tabelle I); format: in vivo; conditions: EWRC scale, 1 = völlige Abtötung, 9 = völlige Wirkungslosigkeit
Text: as §1, §2, §3

[2] = test system: Chenopodium album ("CHEAL"); assay: Field trial, Swiss Mittelland, percent weed control from plant counts (Tabelle II); format: in vivo, Chenopodium album L.; conditions: four weeks after treatment
Text: Die Tabelle II zeigt Resultate von Versuchen, die im Freien, nämlich im schweizerischen Mittelland auf mittelschwerem sandigem Lehmboden durchgeführt wurden. Die hier wiedergegebenen Werte sind Prozent-Zahlen, die errechnet wurden aufgrund der Formel [formula] wobei AK die Individuenzahl der jeweiligen Unkraut-Art pro Flächeneinheit der unbehandelten Kontrollparzelle und AB die entsprechende Individuenzahl pro Flächeneinheit der jeweiligen behandelten Partelle bedeutet. Die Ermittlung der Wirkung erfolgte vier Wochen nach Behandlung.

Maus = conditions: cited from earlier work
Ratte = conditions: cited from earlier work

| SMILES | Schädigung Raps (Raps; 2000 g/ha Aktivstoff I alone) | Durchschnittswert (EWRC) gegenüber den 7 Unkraut-Arten ([1]; 4000 g/ha Aktivstoff I alone) | Wirkung auf Chenopodium album ([2]; 4000 g/ha Aktivstoff I alone) | LD 50 p.o. (Maus) | Schädigung Raps (Raps; 500 g/ha Aktivstoff II alone) | Durchschnittswert (EWRC) gegenüber den 7 Unkraut-Arten ([1]; 1000 g/ha Aktivstoff II alone) | LD 50 p.o. (Ratte) | Wirkung auf Chenopodium album ([2]; 1000 g/ha Aktivstoff II alone) |
| --- | --- | --- | --- | --- | --- | --- | --- | --- |
| CCN(CC)C(=O)SCc1ccccc1Cl [Aktivstoff I, S-(2-Chlorbenzyl)-N,N-diethyl-thiocarbamat] | deutlich geschädigt | 3,5 | 87% | ~1850 mg/kg | – | – | – | – |
| Cc1cccc(C)c1N(Cn1cccn1)C(=O)CCl [Aktivstoff II, N-(2,6-Dimethylphenyl)-N-(1-pyrazolylmethyl)-chloracetamid] | – | – | – | – | deutlich geschädigt | 5,5 | 2150 mg/kg | 91% |
